Experimental data as given in patent publication US12509482B2, “3′-ketoglycoside compound for the slow release of a volatile alcohol” (GLYCOSCIENCE, S.L., priority 2020, dated 2025).
Counter-ions that a name gives are not always drawn.

Legend:
Assay type in all cases: physicochemical
[1] = Example 29: release of phenol from phenyl-O-β-D-3′-keto-6′-sulphatoglucopyranoside pyridinium salt, 0.1 M deuterated phosphate buffer, 15% D6-DMSO, 32° C.
Experimental: In this example the rate of release of phenol from ((2R,3R,5S,6S)-3,5-dihydroxy-4-oxo-6-phenoxytetrahydro-2H-pyran-2-yl)methyl hydrogen sulfate pyridinium salt (phenyl-O-β-D-3′-keto-6′-sulphatoglucopyranoside pyridinium salt) in 0.1 M deuterated phosphate buffer solutions of differing pH containing 15% D6-DMSO was determined.
(§1) 0.1 M of pH 5.8 and 7.4 stock buffered solutions of sodium dihydrogen phosphate and disodium hydrogen phosphate were prepared in deuterated water (D2O).
A stock solution of 20 mg of phenyl-O-β-D-3′-keto-6′-sulphatoglucopyranoside in 0.5 mL of D6-DMSO were prepared.
(§2) To two parallel reaction vials, where indicated in the reaction table below, was added 0.10 mL of the glycoside substrate solutions in D6-DMSO and 0.60 mL of low or high pH 0.1M phosphate buffer in D2O and the mixtures incubated by shaking at 32° C. After times indicated in table below, the mixtures where analysed by ^1H-NMR in a 400 MHz instrument.

[2] = Description: alcohol release from model compounds (III), (IV) and compound (V) in buffer, water and skin washings; conditions: 20 mg/mL mixture; after 3 d
[3] = Example 28: release of methanol from methyl-β-3′-ketoglucuronide methyl ester, 0.1 M deuterated phosphate buffer, 10% D6-DMSO, 32° C.
Experimental: In this example the rate of release of methanol from methyl (2R,3R,5S,6S)-3,5-dihydroxy-6-methoxy-4-oxotetrahydro-2H-pyran-2-carboxylate (methyl-β-3′-ketoglucuronide methyl ester) in D2O containing 10% D6-DMSO or in 0.1 M deuterated phosphate buffer solutions of differing pH containing 10% D6-DMSO or in D2O was determined.
as §1
A stock solution of 20 mg of methyl-β-3′-ketoglucuronide methyl ester in 0.25 mL of D6-DMSO were prepared.
as §2, with “0.05” for “0.10”, “0.55” for “0.60”

[4] = Example 20: release of (S)-α-terpineol from (S)-α-terpineol-O-β-D-3′-ketoglucopyranoside, 0.1 M deuterated phosphate buffer, 33% D6-DMSO, 32° C.
Experimental: In this example the rate of release of (S)-α-terpineol from (2R,3R,5S)-3,5-dihydroxy-2-(hydroxymethyl)-6-((5-(2-hydroxypropan-2-yl)-2-methylcyclohexyl)oxy) tetrahydro-4H-pyran-4-one ((S)-α-terpineol-O-β-D-3′-ketoglucopyranoside) in 0.1 M deuterated phosphate buffer solutions of differing pH containing 33% D6-DMSO was determined.
as §1
A stock solution of 10 mg of (S)-α-terpineol-O-β-D-3′-ketoglucopyranoside in 0.5 mL of D6-DMSO were prepared.
as §2, with “0.20” for “0.10”, “0.40” for “0.60”

[5] = Example 15: release of carvacrol from carvacrol-O-β-D-3′-ketoglucopyranoside, 0.1 M deuterated phosphate buffer, 20% D6-DMSO, 32° C.
Experimental: In this example the rate of release of carvacrol from ((2R,3R,5S)-3,5-dihydroxy-2-(hydroxymethyl)-6-(5-isopropyl-2-methylphenoxy)tetrahydro-4H-pyran-4-one (carvacrol-O-β-D-3′-ketoglucopyranoside) in 0.1 M deuterated phosphate buffer solutions of differing pH containing 20% D6-DMSO was determined. 0.1 M of pH 5.8 and 7.4 stock buffered solutions of sodium dihydrogen phosphate and disodium hydrogen phosphate were prepared in deuterated water (D2O).
A stock solution of 15 mg of carvacrol-O-β-D-3′ketoglucopyranoside in 1.0 mL of D6-DMSO were prepared.
as §2, with “was added 0.20 mL of” for “was added 0.10 mL of”, “D6-DMSO and […] of” for “D6-DMSO and 0.60 mL of”, “buffer in D2O or D2O and” for “buffer in D2O and”

With `O=C1[C@@H](O)[C@H](Oc2ccccc2)O[C@H](COS(=O)(=O)O)[C@H]1O` [((2R,3R,5S,6S)-3,5-dihydroxy-4-oxo-6-phenoxytetrahydro-2H-pyran-2-yl)methyl hydrogen sulfate pyridinium salt] the “phenol release (in words)” value ([1]; 32° C.) was “generates phenol at pH 7.4”, the “% Conversion by 1H-NMR” value ([1]; Reaction 1, pH 5.8, 0 h) was 1% and the “% Conversion by 1H-NMR” value ([1]; Reaction 1, pH 5.8, 5 h) was 2%. For the same compound, the “% Conversion by 1H-NMR” value ([1]; Reaction 1, pH 5.8, 20 h) was 2%, the “% Conversion by 1H-NMR” value ([1]; Reaction 1, pH 5.8, 100 h) was 2% and the “% Conversion by 1H-NMR” value ([1]; Reaction 2 (0.60 mL of pH 5.8 buffer), 0 h) was 4%. The “% Conversion by 1H-NMR” value ([1]; Reaction 2 (0.60 mL of pH 5.8 buffer), 5 h) was 15%, the “% Conversion by 1H-NMR” value ([1]; Reaction 2 (0.60 mL of pH 5.8 buffer), 20 h) was 38% and the “% Conversion by 1H-NMR” value ([1]; Reaction 2 (0.60 mL of pH 5.8 buffer), 100 h) was 84%.
For `CC(C)=CCC/C(C)=C/CO[C@@H]1O[C@H](CO)[C@@H](O)[C@H](O)[C@H]1O` [geranyl-O-β-D-glucopyranoside], the “aroma of geraniol on opening the stoppered reaction vessel” value [2] was “not present”.
With `COC(=O)[C@H]1OC(OC)[C@H](O)C(=O)[C@@H]1O` (stereo in doubt) [methyl-β-3′-ketoglucuronide methyl ester, methyl (2S,3R,5S,6S)-3,5-dihydroxy-6-methoxy-4-oxotetrahydro-2H-pyran-2-carboxylate] the “methanol release (in words)” value ([3]; 32° C.) was “generates methanol at both pH 5.8 and pH 7.4”, the “% Conversion by 1H-NMR” value ([3]; pH 5.8, 0 h) was 0% and the “% Conversion by 1H-NMR” value ([3]; pH 5.8, 5 h) was 2%. The “% Conversion by 1H-NMR” value ([3]; pH 5.8, 20 h) was 7%, the “% Conversion by 1H-NMR” value ([3]; pH 5.8, 163 h (printed under the 72 h column)) was 23% and the “% Conversion by 1H-NMR” value ([3]; pH 7.4, 0 h) was 0%. For the same compound, the “% Conversion by 1H-NMR” value ([3]; pH 7.4, 5 h) was 15%, the “% Conversion by 1H-NMR” value ([3]; pH 7.4, 20 h) was 38% and the “% Conversion by 1H-NMR” value ([3]; pH 7.4, 72 h) was 100%.
In the case of `CC1=CC[C@@H](C(C)(C)O[C@@H]2O[C@H](CO)[C@@H](O)C(=O)[C@H]2O)CC1` [(2R,3R,5S,6S)-3,5-dihydroxy-2-(hydroxymethyl)-6-((2-((S)-4-methylcyclohex-3-en-1-yl)propan-2-yl)oxy)tetrahydro-4H-pyran-4-one], the “pH dependence of (S)-α-terpineol release (in words)” value ([4]; 32° C.) is reported as “only slowly degraded at pH 5.8, but releases (S)-α-terpineol at a significantly higher rate at pH 7.4”, the “% Conversion by 1H-NMR” value ([4]; pH 5.8, 0 h) is reported as 0% and the “% Conversion by 1H-NMR” value ([4]; pH 5.8, 3 h) is reported as 0%. For the same compound, the “% Conversion by 1H-NMR” value ([4]; pH 5.8, 20 h) was 0%, the “% Conversion by 1H-NMR” value ([4]; pH 5.8, 95 h) was 0% and the “% Conversion by 1H-NMR” value ([4]; pH 7.4, 0 h) was 0%. For the same compound, the “% Conversion by 1H-NMR” value ([4]; pH 7.4, 3 h) was 5%, the “% Conversion by 1H-NMR” value ([4]; pH 7.4, 20 h) was 28% and the “% Conversion by 1H-NMR” value ([4]; pH 7.4, 95 h) was 77%. The “% Conversion by 1H-NMR” value ([4]; pH 7.4, column head 167) was 85%.
In the case of `Cc1ccc(C(C)C)cc1O[C@@H]1O[C@H](CO)[C@@H](O)C(=O)[C@H]1O` [carvacrol-O-β-D-3′-ketoglucopyranoside, (2R,3R,5S,6S)-3,5-dihydroxy-2-(hydroxymethyl)-6-(5-isopropyl-2-methylphenoxy)tetrahydro-4H-pyran-4-one], the “pH dependence of carvacrol release (in words)” value ([5]; 32° C.) is reported as “only slowly degraded at pH 5.8, but releases carvacrol at a significantly higher rate at pH 7.4”, the “% Conversion by 1H-NMR” value ([5]; pH 5.8, 1 h) is reported as 2% and the “% Conversion by 1H-NMR” value ([5]; pH 5.8, 5 h) is reported as under 5%. For the same compound, the “% Conversion by 1H-NMR” value ([5]; pH 5.8, 23 h) was under 5%, the “% Conversion by 1H-NMR” value ([5]; pH 5.8, 69 h) was under 5% and the “% Conversion by 1H-NMR” value ([5]; pH 7.4, 1 h) was 8%. The “% Conversion by 1H-NMR” value ([5]; pH 7.4, 5 h) was 14%, the “% Conversion by 1H-NMR” value ([5]; pH 7.4, 23 h) was 83% and the “% Conversion by 1H-NMR” value ([5]; pH 7.4, 69 h) was 100%.
